The values below come from patent US20250263376A1, “(E)-N-CINNAMOYLAMINOALKANOLS WITH MELANOGENESIS INHIBITORY ACTIVITY” (Uniwersytet Jagiellonski, priority 2024, published 2025).

In data set [1] the target is T1, tyrosinase from mushroom (Agaricus bisporus, UniProt C7FF04). The data set is described as follows: Inhibition of commercial mushroom tyrosinase, substrate L-DOPA. It is filed as biochemical. Conditions: 500 μM; read-out: Tyrosinase inhibition with L-DOPA [%]. The procedure:
(§1) Studies on the Inhibition of the Activity of Commercial Tyrosinase from Mushroom (Sigma: T3824)
(§2) The following substrates were used for the enzymatic reaction: L-tyrosine and L-3,4-dihyroxyphenylalanine (L-DOPA). Both substrates were used in independent experiments. According to the literature, the use of L-DOPA enables the assessment of tyrosinase diphenolase activity, and L-tyrosine—the tyrosinase monophenolase activity. The determinations were performed in 96-well plates, in each well there was placed: 170 μL or 127.5 μL of 50 mM phosphate buffer (pH=6.8) with tyrosinase (1U/well or 3U/well) and 10 μL of a solution of the tested compound in DMSO (the final concentration in the well was 500 μM, 250 μM or 125 μM). The negative control used 10 u L of pure solvent (DMSO). To initiate the reaction, an appropriate substrate was added: L-tyrosine (62.5 μL of solution in phosphate buffer) or L-DOPA (20 μL of solution in phosphate buffer). After a 25-minute incubation, the absorbance was measured at 475 nm using a microplate reader. The percentage of inhibition of tyrosinase activity was calculated using the formula: [(AC−AT)/[…], where AC—is the absorbance of the negative control, AT—is the absorbance of the sample containing the tested compound.

The target in data set [2] is T1, tyrosinase from mushroom. The data set is described as follows: Inhibition of commercial mushroom tyrosinase, substrate L-tyrosine. It is filed as biochemical. Particulars: 500 μM; read-out: Tyrosinase inhibition with L-tyrosine [%]. As to the method:
as §1, §2

A short description of data set [3]: Lipophilicity coefficient RM0 by reversed phase thin layer chromatography. It is filed as physicochemical. Conditions: RP-18 TLC, methanol/phosphate buffer pH=7.4. As to the method: Confirmation of the identity and purity of the obtained compounds consisted in the registration and interpretation of 1H NMR and 13C NMR spectra (the spectra were recorded using an ECZR 500 MHZ (JEOL) series FT-NMR spectrophotometer), as well as the registration and interpretation of LC-MS spectra (the spectra were recorded using Acquita UPLC system (Waters) coupled with a Waters TQD mass spectrometer). The melting point was measured using the open capillary method in the IA9300 device (Electrothermal). The lipophilicity coefficient RM0 was determined by reversed phase thin layer chromatography. In the study, aluminum plates 20×20 cm covered with modified silica gel RP-18 F254 (Merck) were used as the solid phase. The mobile phase consisted of solutions of methanol and 100 mM phosphate buffer (pH=7.4), characterized by a variable methanol content ranging from 95 to 65% (v/v). The tested compounds were dissolved in methanol to obtain solutions with a concentration of 1 mg/mL. Then, […] of the solutions prepared in this way were transferred to the starting line on aluminum plates, which were then placed in chromatographic chambers previously saturated with mobile phase vapors for at least 1 hour. All activities, including the development of chromatograms, were carried out at room temperature. After developing the chromatograms to approximately 1-2 cm from the end of the plate, the plates were dried and then the distance traveled by the tested compounds was visualized under UV light (λ=254 nm). The experiment was performed in duplicate for the specified conditions. For all samples, Rf was calculated according to the formula Rf=a/b, where a—the distance traveled by the tested compound, b—the distance traveled by the mobile phase. Then, the RM parameter was calculated for all samples according to the formula RM=log (1/Rf−1), obtaining a linear relationship between the RM values and the methanol concentration in the mobile phase. The log P coefficient was also calculated using the following computer programs: ACD/ChemSketch 2020.1.2 and ChemDraw 20.0.0.41.

Data set [4] deals with B16-F10 murine melanoma cell line. The data set is described as follows: Cytotoxicity (MTT) in B16-F10 murine melanoma cells. It is filed as cell-based. Conditions: 48 h. The procedure:
Cytotoxicity Assessment in the B16-F10 Murine Melanoma Cell Line (ATTC CRL-6745)—Preliminary Safety Assessment for Subsequent Studies
In order to determine safe doses of compounds for testing the inhibition of melanogenesis in a murine melanoma cell line, cytotoxicity tests were performed. Cytotoxicity was determined by the colorimetric method using MTT ([3-(4,5-dimethyl-2-thiazolyl)-2,5-diphenyl-2H-tetrazolium bromide, Sigma M5655). For this purpose, cells were transferred to 96-well plates in an amount of 5000/well. After 24 h of culture in an incubator in F10-Ham medium with 1% FBS, the tested compounds at various concentrations were added to the wells together with fresh medium. DMSO was added to the medium in a negative control. The MTT test was performed after further culture for 48 h. Then the medium was removed and the formed formazan crystals were dissolved in DMSO. The absorbance was measured at 570 nm in a plate reader and the result was compared to the control (DMSO), which was 100%. The percentage of viability was calculated using the formula: [AT/AC*100], where AT is the absorbance of the test sample, AC—absorbance of the control sample.

The subject of the next data set is S. typhimurium TA98. The data set is described as follows: Ames microplate test, TA98. It is filed as cell-based, Salmonella typhimurium. Particulars: positive control 0.5 μg/mL, + S9. The procedure:
Bacteria were grown overnight in growth medium.

Another data set relates to S. typhimurium TA100. The data set is described as follows: Ames microplate test, TA100. It is filed as cell-based, Salmonella typhimurium. Conditions: positive control 1.25 μg/mL, + S9.
Another data set relates to S. typhimurium TA1535. The data set is described as follows: Ames microplate test, TA1535.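 Also: bacteria exposed 90 min at 37 °C in exposure medium, then 48 h in indicator medium in 384-well plates, yellow (revertant) wells counted per condition.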 Particulars: positive control 2.5 μg/mL, + S9.

Where “and” joins values, the source holds several entries; their conditions need not be identical. Equal values may be shown once.

T1 sequence (C7FF04 2-392): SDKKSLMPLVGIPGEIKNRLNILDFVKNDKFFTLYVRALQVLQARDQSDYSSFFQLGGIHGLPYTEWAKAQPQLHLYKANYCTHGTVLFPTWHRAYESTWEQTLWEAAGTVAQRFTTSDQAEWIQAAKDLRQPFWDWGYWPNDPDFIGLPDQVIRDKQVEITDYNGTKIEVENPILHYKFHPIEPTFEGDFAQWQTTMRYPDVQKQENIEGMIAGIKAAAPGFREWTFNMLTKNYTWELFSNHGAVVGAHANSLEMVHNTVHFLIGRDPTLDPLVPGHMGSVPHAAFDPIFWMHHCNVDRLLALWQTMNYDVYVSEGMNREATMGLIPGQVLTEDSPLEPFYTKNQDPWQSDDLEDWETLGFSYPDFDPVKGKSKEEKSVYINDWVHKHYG
T1 sequence (G1K3P4 entry or part of it, further chain): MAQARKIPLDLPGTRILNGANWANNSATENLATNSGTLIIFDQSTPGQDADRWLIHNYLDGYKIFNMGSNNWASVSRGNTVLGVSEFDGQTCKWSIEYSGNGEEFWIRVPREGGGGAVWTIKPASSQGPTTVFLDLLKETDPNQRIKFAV
Experimental for S. typhimurium TA1535: The study used the Ames microplate test (Ames MPF™ Penta 2 by Xenometrix, Allschwil, Switzerland). Growth medium, exposure medium, indicator medium, positive controls, hepatic microsomal fraction, NADP, glucose-6-phosphate, Salmonella typhimurium and Escherichia coli strains were components of the purchased experimental kit. Bacteria were grown overnight in growth medium. They were then exposed to the test compound at the appropriate concentration in exposure medium without or with the rat microsomal fraction S9 in 24-well plates for 90 min at 37° C. with shaking. Then, indicator medium was added to the wells and pipetted into 384-well plates, which were incubated for 48 hours at 37° C. without shaking. Results were assessed by counting the wells in which the medium turned yellow for each experimental condition.

One may read the inhibition as the relative decrease from the control value, in per cent. Turning to `O=C(/C=C/c1ccc(Cl)cc1Cl)N1CCC(O)CC1` [H-310/20, (2E)-3-(2,4-dichlorophenyl)-1-(4-hydroxypiperidin-1-yl)prop-2-en-1-one], the inhibition at 500 µM amounted to 7.23 ± 0.81% on tyrosinase from mushroom [1] and 19.2 ± 3.44% at tyrosinase from mushroom [2]. The compound further registered an RM0 in data set [3] of 2.80. Besides, the figures for the “Cytotoxicity study in B16F10 cells, % viability” value (“Cytotoxicity study … % viability” for short) in data set [4] (150 μM), in data set [4] (200 μM) and in data set [4] (250 μM) were 89.5%, 100.4% and 93.0%, respectively.

In the case of `Cc1ccc(/C=C/C(=O)NC(C)CO)cc1` (centres unmarked) [Compound A-69, (2E)-N-(1-hydroxypropan-2-yl)-3-(4-methylphenyl)prop-2-enamide], the inhibition at 500 µM at tyrosinase from mushroom [1] amounted to 23 ± 6.64%; on tyrosinase from mushroom [2] it was 4.4 ± 7.15%. Moreover, the RM0 in data set [3] turned out to be 2.17. The “Cytotoxicity study … % viability” value in data set [4] (150 μM) is listed as 96.6%; in data set [4] (200 μM), 101.3%; in data set [4] (250 μM), 97.5%.

As to `CCC(O)CNC(=O)/C=C/c1ccc(Cl)cc1Cl` (centres unmarked) [H-320/21, (2E)-3-(2,4-dichlorophenyl)-N-(2-hydroxybutyl)prop-2-enamide], the inhibition at 500 µM was 5.8 ± 3.04% on tyrosinase from mushroom [1] and 24.4 ± 8.05% on tyrosinase from mushroom [2]. In data set [3], the RM0 is on record as 3.08. Besides, the “Cytotoxicity study … % viability” value was 101.7% in data set [4] (150 μM), 90.8% in data set [4] (200 μM) and 33.9% in data set [4] (250 μM).

As for `CC(C)C(CO)NC(=O)/C=C/c1ccc(Cl)cc1` (centres unmarked) [Compound A-106, (2E)-3-(4-chlorophenyl)-N-(1-hydroxy-3-methylbutan-2-yl)prop-2-enamide], the inhibition at 500 µM at tyrosinase from mushroom [1] worked out at 41.2 ± 0.81%; on tyrosinase from mushroom [2], 57.6 ± 2.11%. The RM0 in data set [3] is on record as 2.76. Besides, the “Cytotoxicity study … % viability” value is 85.9% in data set [4] (150 μM), 88.1% in data set [4] (200 μM) and 72.6% in data set [4] (250 μM).

As for `Cc1ccc(/C=C/C(=O)NCCCO)cc1` [H-410/21, (2E)-N-(3-hydroxypropyl)-3-(4-methylphenyl)prop-2-enamide], the inhibition at 500 µM is 17 ± 5.66% on tyrosinase from mushroom [1] and 0.51 ± 5.4% on tyrosinase from mushroom [2]. The RM0 in data set [3] stood at 2.04. For the same compound, the entries for the “Cytotoxicity study … % viability” value in data set [4] (150 μM), in data set [4] (200 μM) and in data set [4] (250 μM) were 88.8%, 90.7% and 79.8%, respectively.

With `Nc1ccc2cc3ccccc3cc2c1` [Compound 2-AA, 2-aminoanthracene, reference compound], the “Increase in the number of yellow wells compared to the reference level, TA98” value with S. typhimurium TA98 is 24.00 and 15.03. Moreover, the “Increase in the number of yellow wells compared to the reference level, TA100” value in the data set on S. typhimurium TA100 turned out to be 4.00.

Consider `CCC(CO)NC(=O)/C=C/c1ccc(Cl)cc1Cl` (centres unmarked) [H-285/20, (2E)-3-(2,4-dichlorophenyl)-N-(1-hydroxybutan-2-yl)prop-2-enamide], for which the figures for the inhibition at 500 µM on tyrosinase from mushroom [1] and at tyrosinase from mushroom [2] were 0.21 ± 5.64% and 14.6 ± 1.63%, respectively. Moreover, in data set [3], the RM0 is recorded as 3.08. Moreover, the “Cytotoxicity study … % viability” value in data set [4] (150 μM) stood at 84.2%; in data set [4] (200 μM), 74.8%; in data set [4] (250 μM) it was 24.6%.

Turning to `CCC(CO)NC(=O)/C=C/c1ccc(Cl)cc1` (centres unmarked) [Compound A-01, (2E)-3-(4-chlorophenyl)-N-(1-hydroxybutan-2-yl)prop-2-enamide], the inhibition at 500 µM on tyrosinase from mushroom [1] came out at 44 ± 2.6%; on tyrosinase from mushroom [2], 61.8 ± 0.4%. The compound further had an RM0 in data set [3] of 2.43. Moreover, the “Cytotoxicity study … % viability” value in data set [4] (150 μM) is on record as 73.6%; in data set [4] (200 μM) it was 93.2%; in data set [4] (250 μM) it was 85.4%.

Turning to `O=C(/C=C/c1ccccc1)NCCO` [H-429/21, (2E)-N-(2-hydroxyethyl)-3-phenylprop-2-enamide], the inhibition at 500 µM at tyrosinase from mushroom [1] was found to be 30.5 ± 1.2%; at tyrosinase from mushroom [2], 21 ± 8.83%. Besides, the RM0 in data set [3] is reported as 1.27. Besides, the “Cytotoxicity study … % viability” value was 86.4% in data set [4] (150 μM), 79.8% in data set [4] (200 μM) and 80.9% in data set [4] (250 μM).

Turning to `CCC(O)CNC(=O)/C=C/c1ccc(C)cc1` (centres unmarked) [Compound A-63, (2E)-N-(2-hydroxybutyl)-3-(4-methylphenyl)prop-2-enamide], the inhibition at 500 µM on tyrosinase from mushroom [1] was 21.2 ± 1.26%; at tyrosinase from mushroom [2], 30.2 ± 10.2%. The RM0 in data set [3] is on record as 2.39. The entries for the “Cytotoxicity study … % viability” value in data set [4] (150 μM), in data set [4] (200 μM) and in data set [4] (250 μM) were 90.2%, 87.3% and 87.4%, respectively.

In the case of `Nc1c2ccccc2nc2ccccc12` [Compound 9-AA, reference compound], the “Increase in the number of yellow wells compared to the reference level, TA1535” value with S. typhimurium TA1535 was 10.25 and 15.41.

In the case of `O=C(/C=C/c1ccccc1)NCCCO` [KM-634, (2E)-N-(3-hydroxypropyl)-3-phenylprop-2-enamide], the inhibition at 500 µM at tyrosinase from mushroom [1] was 34.2 ± 2.32%; at tyrosinase from mushroom [2], 27.4 ± 2.24%. For the same compound, in data set [3], the RM0 is 1.60. Further, the “Cytotoxicity study … % viability” value in data set [4] (150 μM) came out at 76.1%; in data set [4] (200 μM) it was 70.5%; in data set [4] (250 μM), 63.3%.

Turning to `O=C(/C=C/c1ccc(Cl)cc1Cl)NCCCCCO` [H-297/20, (2E)-3-(2,4-dichlorophenyl)-N-(5-hydroxypentyl)prop-2-enamide], the inhibition at 500 µM at tyrosinase from mushroom [1] amounted to 20.5 ± 2.84%; on tyrosinase from mushroom [2], 19.1 ± 2.53%. This compound gave an RM0 in data set [3] of 3.08. For the same compound, the “Cytotoxicity study … % viability” value was 102.3% in data set [4] (150 μM), 73.6% in data set [4] (200 μM) and 88.5% in data set [4] (250 μM).

With `Cc1ccc(/C=C/C(=O)NCCCCO)cc1` [H-411/21, (2E)-N-(4-hydroxybutyl)-3-(4-methylphenyl)prop-2-enamide], the inhibition at 500 µM on tyrosinase from mushroom [1] is 16.9 ± 7.94%; at tyrosinase from mushroom [2], 20.4 ± 2.09%. In data set [3], this compound came in with an RM0 of 2.27. Besides, the results for the “Cytotoxicity study … % viability” value in data set [4] (150 μM), in data set [4] (200 μM) and in data set [4] (250 μM) were 50.6%, 34.9% and 41.2%, respectively.

`O=C(/C=C/c1ccc(Cl)cc1)N1CCC(O)CC1` [Compound A-99, (2E)-3-(4-chlorophenyl)-1-(4-hydroxypiperidin-1-yl)prop-2-en-1-one]: the inhibition at 500 µM on tyrosinase from mushroom [2] was 75.1 ± 1.6%. The compound also had an RM0 in data set [3] of 2.27. Further, the “Cytotoxicity study … % viability” value in data set [4] (150 μM) is on record as 109.8%; in data set [4] (200 μM), 102.6%; in data set [4] (250 μM), 96.6%.
